Reference: patent US20080214606A1, “Methods for the Identification and Use of Compounds Suitable for the Treatment of Drug Resistant Cancer Cells” (The Government of the United States of America as …, priority 2004, published 2008)
Entries after “also recorded” stand apart in the source; their conditions may differ.

Key:
[1] = tested on: KB-V1 cells (over-express MDR1-P-gp) vs parental KB-3-1 cells; assay: MTT assay using the KB-3-1/KB-V1 cell pair; format: cell-based, human
Experimental: (§1) Cell survival is measured by the MTT (3-(4,5-Dimethylthiazol-2-yl)-2,5-diphenyltetrazolium) Assay. Cells are seeded in 100 μl medium at a density of 5000 cells/well in 96 well plates, and serially diluted drug (with or without 2 μM PSC 833) is added the following day in 100 μl medium to give the indicated final concentration. Cells are then incubated for 72 hrs at 37° C. in 5% CO2, and the MTT assay is performed according to the manufacturer's instructions (Molecular Probes, Eugene, Oreg.).
To test whether our approach using the NCI-60 does, in fact, identify new substrates, an MTT assay is used to test all top-scoring compounds that were available from DTP for follow-up experiments. KB-3-1, a human carcinoma cell line, and KB-V1, a multidrug resistant derivative of KB-3-1 that over-expresses MDR1-P-gp (Shen et al., 1986, J. Biol. Chem. 261:7762-7770), are used for the tests. […] This resistance of KB-V-1 cells is invariably reversible by PSC 833. The intrinsic fluorescence of one of the compounds, NSC 634791, allows for the measurement of the effect of MDR1 activity on its export from cells.

MDR1 = MDR1 (Homo sapiens, UniProt P08183); assay: Block of MDR1-mediated transport of other molecules; format: cell-based
[2] = tested on: KB Hela cells expressing ABCB1(MDR1) under tetracycline control; assay: MTT assay using HeLa-transfectants with human MDR1 under tetracycline control; format: cell-based; conditions: absence (On) or presence (Off) of 2 μg/ml tetracycline
Experimental: Panel A is a scatter plot showing positive correlation (r=+0.54; 95% confidence interval 0.259 to 0.713) of ABCB1 expression with sensitivity of the 60 cell lines to NSC 73306. […] Cells are grown in the absence (ABCB1(MDR1)-On) or presence (ABCB1(MDR1)-Off) of 2 μg/ml tetracycline for at least seven days before starting the MTT assay. Cell surface expression and function of ABCB1 (MDR1) are verified prior to the assay by staining with anti-MDR1 monoclonal antibody (MRK-16) and by a performing a functional assay based on MDR1-controlled accumulation of the fluorescent dye Calcein (Homolya et al., 1996, Br. J. Cancer 73:849-855). […] Values are means ±S.E. of triplicate measurements.
Cell survival is measured by the MTT (3-(4,5-Dimethylthiazol-2-yl)-2,5-diphenyltetrazolium) Assay. Cells are seeded in 100 μl medium at a density of 5000 cells/well in 96 well plates, and serially diluted drug (with or without 2 μM PSC 833) is added the following day in 100 μl medium to give the indicated final concentration. Cells are then incubated for 72 hrs at 37° C. in 5% CO2, and the MTT assay is performed according to the manufacturer's instructions (Molecular Probes, Eugene, Oreg.). […]

MDR1 positive cells = assay: Pretreatment of MDR1 positive cells with MDR1-potentiated compound (loss of MDR phenotype); format: cell-based
From the text: In another preferred embodiment, the invention relates to methods of inhibiting the development of a multidrug resistance phenotype in a cancer in a subject comprising administering an ABCB1 potentiated agent to the subject. As used herein, inhibiting the development of a multidrug resistant phenotype refers to both the inhibition of the initial onset of the phenotype or the inhibition of any further development of the multidrug phenotype. It is contemplated as part of the invention that the ABCB1 potentiated agent may be administered simultaneously with a chemotherapeutic agent that is a substrate of the ABCB1 transporter. It is understood as an aspect of the invention that such simultaneous administration refers to administration within the same general time period rather than at the same exact moment in time. Thus treatment with the ABCB1 potentiated compound and the chemotherapeutic agent may be on the same day or on different days, or in the same week or in different weeks. It is within the skill of the ordinary artisan to optimize a treatment schedule to maintain the therapeutic efficacy of the chemotherapeutic agent by administration of the ABCB1 potentiated compound to inhibit the development of drug resistance. MDR1-potentiated compounds may be used to prevent the emergence of drug resistance clones. […]

ABCD1 = biological target: T1, ABCD1 (Homo sapiens, UniProt P33897); assay: Correlation of ABCD1 expression with drug sensitivity across the NCI-60; format: cell-based; conditions: Pearson correlation of ABCD1 expression with sensitivity of the 60 cell lines; 1429 compounds; inverse, p < 0.0001
T1 construct: profiled in 60 diverse cancer cell lines (the NCI-60) using real-time RT-PCR; endogenous in cells; host or cells: NCI-60 human cancer cell lines
Experimental: (§2) Expression levels are measured by real-time quantitative RT-PCR using the LightCycler RNA Amplification SYBR Green kit and a LightCycler machine (Roche Biochemicals, Indianapolis, Ind.). […] When possible, the amplicons are designed to encompass exon-intron boundaries to avoid amplification of genomic DNA. Since the Syber Green assay detects accumulation of double stranded DNA, primers are selected (from a battery consisting of about 200 primers) that amplified a single product of the correct size.
RT-PCR is carried out on 150 ng total RNA, in the presence of 250 nM specific primers. Following reverse transcription (20 min at 50° C.), the PCR reaction consists of 45 cycles of denaturation (15 sec at 95° C.), annealing (30 sec at 58° C.), and elongation (30 sec at 72° C.). No-template (water) reaction mixtures are prepared as negative controls.
During PCR amplification, fluorescence emission is measured and recorded in real time by the LightCycler. Crossing point values are calculated, using the LightCycler software package, by the Fit Points analysis method, with baseline fluorescence set at 1. The SyberGreen assay measures accumulation of double-stranded products, and the appearance of primer dimers limits quantitation at high cycle numbers. The specificity of amplified products is verified by melting-curve analysis and agarose gel electrophoresis (not shown). The raw results are expressed as number of cycles to reach the crossing point. If the desired product is not detected, the corresponding value is adjusted to crossing points indicating no expression. To assess the contribution of experimental artifacts, selected cell lines are assessed in replicate.
The two are combined to form a joint dataset that includes 1429 compounds.
To determine quantitatively how well the 47 genes cluster the cell lines by their tissues of origin, a statistical method is employed wherein the kappa statistic is used to indicate how well the observed clusters correspond to the nine tissue-of-origin classifications. […] To control the overall false type 1 error rate, both a step-down procedure (Westfall and Young, 1993, Resampling-Based Multiple Testing: Examples and Methods for p-value Adjustment (New York: Wiley)) and a step-up procedure (Reiner et al., 2003, Bioinformatics 19:368-375) were employed to adjust for multiple testing of all 47 genes simultaneously. In the Benjamini-Hochberg procedure the p-values are computed in the standard way by permutation, assuming that all distributions are exchangeable: the number of values in the permuted data with correlations over a threshold, divided by the number of compounds and by the number of permutations. In this analysis, the False Discovery Rate (q-value) at which each compound would be declared was calculated using the step-up procedure for positively correlated test statistics (again true because all correlations being compared are computed against the same ABC gene): in this procedure the first q-value for the largest correlation is the Bonferroni-corrected p-value for that gene; then further q-values are calculated as qj=max(pj*1429/j, qj-1). This procedure limits the expected proportion of false positives in the list 1, . . . , j to at most qj.

ABCB1 = ABCB1 (Homo sapiens, UniProt P08183); assay: Correlation of ABCB1 expression with drug sensitivity across the NCI-60
Outline: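 SYBR Green real-time RT-PCR on 150 ng total RNA with 250 nM primers: RT 20 min at 50 °C, then 45 cycles; expression taken as crossing-point cycle number. Correlated with drug sensitivity of 1429 compounds across the cell panel; permutation p-values with step-down and step-up (FDR q-value) multiple-testing correction.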

ABCB6 = biological target: T2, ABCB6 (Homo sapiens, UniProt Q9NP58); assay: Correlation of ABCB6 expression with drug sensitivity across the NCI-60; format: cell-based; conditions: Pearson correlation of ABCB6 expression with sensitivity of the 60 cell lines; 1429 compounds; inverse, p < 0.0001
T2 construct: profiled in 60 diverse cancer cell lines (the NCI-60) using real-time RT-PCR; endogenous in cells; host or cells: NCI-60 human cancer cell lines
Experimental: (§3) Expression levels are measured by real-time quantitative RT-PCR using the LightCycler RNA Amplification SYBR Green kit and a LightCycler machine (Roche Biochemicals, Indianapolis, Ind.). Specific oligonucleotide probes are designed for each of the ABC transporters using DNAStar Primer Select (DNASTAR Inc.), and they may be synthesized at Lofstrand Laboratories (Gaithersburg, Md.). When possible, the amplicons are designed to encompass exon-intron boundaries to avoid amplification of genomic DNA. Since the Syber Green assay detects accumulation of double stranded DNA, primers are selected (from a battery consisting of about 200 primers) that amplified a single product of the correct size. […]
(§4) During PCR amplification, fluorescence emission is measured and recorded in real time by the LightCycler. Crossing point values are calculated, using the LightCycler software package, by the Fit Points analysis method, with baseline fluorescence set at 1. The SyberGreen assay measures accumulation of double-stranded products, and the appearance of primer dimers limits quantitation at high cycle numbers. […] The raw results are expressed as number of cycles to reach the crossing point. If the desired product is not detected, the corresponding value is adjusted to crossing points indicating no expression. To assess the contribution of experimental artifacts, selected cell lines are assessed in replicate. […]

ABCC9 = biological target: T3, ABCC9 (Homo sapiens, UniProt O60706); assay: Correlation of ABCC9 expression with drug sensitivity across the NCI-60; format: cell-based; conditions: Pearson correlation of ABCC9 expression with sensitivity of the 60 cell lines; 1429 compounds; inverse, p < 0.0001
T3 construct: profiled in 60 diverse cancer cell lines (the NCI-60) using real-time RT-PCR; endogenous in cells; host or cells: NCI-60 human cancer cell lines
Experimental: as §2
(§5) RT-PCR is carried out on 150 ng total RNA, in the presence of 250 nM specific primers. […]
as §4

ABCA9 = biological target: T4, ABCA9 (Homo sapiens, UniProt Q8IUA7); assay: Correlation of ABCA9 expression with drug sensitivity across the NCI-60; format: cell-based; conditions: Pearson correlation of ABCA9 expression with sensitivity of the 60 cell lines; 1429 compounds; inverse, p < 0.0001
T4 construct: profiled in 60 diverse cancer cell lines (the NCI-60) using real-time RT-PCR; endogenous in cells; host or cells: NCI-60 human cancer cell lines
Experimental: as §3, §4

ABCC8 = biological target: T5, ABCC8 (Homo sapiens, UniProt Q09428); assay: Correlation of ABCC8 expression with drug sensitivity across the NCI-60; format: cell-based; conditions: Pearson correlation of ABCC8 expression with sensitivity of the 60 cell lines; 1429 compounds; inverse, p < 0.0001
T5 construct: profiled in 60 diverse cancer cell lines (the NCI-60) using real-time RT-PCR; endogenous in cells; host or cells: NCI-60 human cancer cell lines
Experimental: as §2, §5, §4

[3] = tested on: MDR1-overexpressing KB-V1 cells; assay: Efflux assay (accumulation of fluorescent NSC 634791, flow cytometry); format: cell-based, human
Experimental: The dashed lines indicate the same experiment performed in the presence of 2 μM of the ABCB1 inhibitor, PSC 833 (for KB-3-1, the solid and dashed lines overlap). Values are means ±SE. for representative experiments performed in triplicate. […] The effect of PSC 833 on IC50 values in KB-V1 cells is expressed as a dose modifying factor, DMF=[IC50/IC50+(IC50)PSC833)], where (IC50)PSC833 is the value obtained in the presence of the inhibitor. […] Cells are incubated with 1.74 μM NSC 634791 for 10 min at 37° C. in the presence (peak on the right) or absence (peak on the left) of 2 μM PSC 833.
Trypsinized cells are washed twice in phosphate-buffered saline (PBS). 5×10^5 cells are pre-incubated for 5 min at 37° C. in Iscove's Modified Dulbecco's Medium (Quality Biologicals, Gaithersburg, Md.) with 0.5% dimethyl sulphoxide (DMSO), with or without 2 μM PSC 833. […] Green fluorescence intensity is measured using a FacsCalibur flow cytometer equipped with a 488-nm argon laser (Becton Dickinson Biosciences, San Jose, Calif., USA). […]
To test whether our approach using the NCI-60 does, in fact, identify new substrates, an MTT assay is used to test all top-scoring compounds that were available from DTP for follow-up experiments. […] The intrinsic fluorescence of one of the compounds, NSC 634791, allows for the measurement of the effect of MDR1 activity on its export from cells.

[4] = tested on: ABCC2-transfected MDCKII cells; assay: MTT assay, ABCC2-transfected vs sham-transfected MDCKII cells; format: cell-based, dog
Experimental: Panel A is a scatter plot showing the correlation (r) of ABCC2 expression with sensitivity of the 60 cells to NSC 641281 (r=−0.46; 99.99% two-tailed bootstrap confidence interval −0.7987 to −0.0440).
as §1
The ABCC (MRP) subfamily is comprised of nine members that transport structurally diverse lipophilic anions and function as drug efflux pumps (Kruh and Belinsky, 2003, Oncogene 22:7537-52). ABCC2-MRP2 is a canalicular efflux pump with a role in the hepatobiliary excretion of bilirubin glucuronide as well as numerous pharmaceuticals. […] One of these compounds, NSC 641281 (shown in FIG. 4, Panel C), was available from DTP for further testing. […]

ABCG2 = biological target: T6, ABCG2 (Homo sapiens, UniProt Q9UNQ0); assay: Correlation of ABCG2 expression with drug sensitivity across the NCI-60; format: cell-based; conditions: Pearson correlation of ABCG2 expression with sensitivity of the 60 cell lines; 1429 compounds; inverse, p < 0.0001
T6 construct: endogenous in cells; host or cells: NCI-60 human cancer cell lines
Experimental: as §3, §4

[5] = tested on: ABCC11-transfected LLC-PK1 cells; assay: MTT assay, ABCC11-transfected vs sham-transfected LLC-PK1 cells; format: cell-based
Experimental: Panel A is a scatter plot showing the correlation (r) of ABCC11 expression with sensitivity of the 60 cells to NSC 671136 (r=−0.4; 99.99% two-tailed bootstrap confidence interval −0.6726 to −0.0141). […] Values are means ±S.E. of triplicate MTT assays.
as §1
One compound, NSC 671136 (shown in FIG. 5, Panel C), met the stringent bootstrap criterion for significant inverse correlation with the expression of ABCC11 in the 60 cell lines (FIG. 5, Panel A). An MTT assay was used to assess whether over-expression of ABCC11 can confer resistance to the NSC 671136 compound.

ABCC11 = biological target: T7, ABCC11 (Homo sapiens, UniProt Q96J66); assay: Correlation of ABCC11 expression with drug sensitivity across the NCI-60; format: cell-based; conditions: after removal of the single, high-expressing cell line (T47D)
T7 construct: profiled in 60 diverse cancer cell lines (the NCI-60) using real-time RT-PCR; endogenous in cells; host or cells: NCI-60 human cancer cell lines
Experimental: as §2, §5, §4

Sequence of ABCB1 (P08183 whole entry): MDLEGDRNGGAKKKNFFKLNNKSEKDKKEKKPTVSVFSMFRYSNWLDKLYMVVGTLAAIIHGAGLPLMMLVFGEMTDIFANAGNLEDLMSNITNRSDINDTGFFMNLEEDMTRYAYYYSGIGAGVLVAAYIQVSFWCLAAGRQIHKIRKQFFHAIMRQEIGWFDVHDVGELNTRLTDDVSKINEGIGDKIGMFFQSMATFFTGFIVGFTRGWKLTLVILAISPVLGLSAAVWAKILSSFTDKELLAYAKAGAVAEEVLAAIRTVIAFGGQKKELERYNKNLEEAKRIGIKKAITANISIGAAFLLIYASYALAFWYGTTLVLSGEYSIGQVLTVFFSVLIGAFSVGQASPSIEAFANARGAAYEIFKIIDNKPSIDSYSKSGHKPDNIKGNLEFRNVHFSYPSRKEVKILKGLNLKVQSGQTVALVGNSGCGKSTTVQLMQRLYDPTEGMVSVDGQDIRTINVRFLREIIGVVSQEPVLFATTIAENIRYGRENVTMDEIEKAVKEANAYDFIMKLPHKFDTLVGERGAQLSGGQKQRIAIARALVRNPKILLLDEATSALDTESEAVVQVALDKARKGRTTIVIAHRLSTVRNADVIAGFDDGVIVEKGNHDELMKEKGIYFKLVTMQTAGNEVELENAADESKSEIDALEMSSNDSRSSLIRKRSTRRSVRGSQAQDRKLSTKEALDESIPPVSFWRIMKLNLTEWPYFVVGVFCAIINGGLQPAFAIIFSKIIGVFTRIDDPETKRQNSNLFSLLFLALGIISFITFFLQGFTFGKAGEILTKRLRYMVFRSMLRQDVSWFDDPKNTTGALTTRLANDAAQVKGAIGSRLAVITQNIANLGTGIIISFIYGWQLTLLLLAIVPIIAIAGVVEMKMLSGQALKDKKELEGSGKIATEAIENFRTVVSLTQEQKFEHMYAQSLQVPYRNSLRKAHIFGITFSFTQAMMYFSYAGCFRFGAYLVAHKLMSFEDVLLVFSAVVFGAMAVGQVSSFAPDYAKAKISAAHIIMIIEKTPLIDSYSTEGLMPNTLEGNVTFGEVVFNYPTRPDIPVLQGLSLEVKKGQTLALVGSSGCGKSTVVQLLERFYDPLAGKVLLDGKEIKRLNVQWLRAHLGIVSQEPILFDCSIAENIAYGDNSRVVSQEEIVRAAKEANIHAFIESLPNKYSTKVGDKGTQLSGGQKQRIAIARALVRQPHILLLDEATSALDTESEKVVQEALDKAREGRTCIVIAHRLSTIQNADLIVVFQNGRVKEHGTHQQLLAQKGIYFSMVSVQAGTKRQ
T2 sequence (Q9NP58 whole entry): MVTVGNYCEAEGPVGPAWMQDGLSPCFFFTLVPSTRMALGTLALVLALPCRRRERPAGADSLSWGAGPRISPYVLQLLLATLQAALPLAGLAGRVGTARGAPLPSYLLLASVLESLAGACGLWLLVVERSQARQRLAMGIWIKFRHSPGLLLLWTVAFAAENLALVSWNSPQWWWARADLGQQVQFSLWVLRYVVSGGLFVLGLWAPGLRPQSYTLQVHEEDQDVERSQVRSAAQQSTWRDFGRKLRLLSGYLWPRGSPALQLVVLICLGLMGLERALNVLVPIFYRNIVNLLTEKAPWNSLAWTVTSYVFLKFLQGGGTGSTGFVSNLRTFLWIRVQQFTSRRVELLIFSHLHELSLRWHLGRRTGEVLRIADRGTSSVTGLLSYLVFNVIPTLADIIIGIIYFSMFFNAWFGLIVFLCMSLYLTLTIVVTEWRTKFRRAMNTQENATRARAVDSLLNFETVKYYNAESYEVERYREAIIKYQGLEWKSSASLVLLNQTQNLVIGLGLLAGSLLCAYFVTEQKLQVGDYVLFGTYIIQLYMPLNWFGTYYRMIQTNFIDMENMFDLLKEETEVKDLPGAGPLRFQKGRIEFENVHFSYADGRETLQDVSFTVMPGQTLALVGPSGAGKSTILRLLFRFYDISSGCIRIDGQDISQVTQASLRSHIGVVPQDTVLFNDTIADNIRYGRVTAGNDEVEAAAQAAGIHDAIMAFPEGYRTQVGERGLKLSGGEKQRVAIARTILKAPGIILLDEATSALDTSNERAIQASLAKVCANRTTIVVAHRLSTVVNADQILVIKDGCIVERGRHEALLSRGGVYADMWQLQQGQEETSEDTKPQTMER
T4 sequence (Q8IUA7 whole entry): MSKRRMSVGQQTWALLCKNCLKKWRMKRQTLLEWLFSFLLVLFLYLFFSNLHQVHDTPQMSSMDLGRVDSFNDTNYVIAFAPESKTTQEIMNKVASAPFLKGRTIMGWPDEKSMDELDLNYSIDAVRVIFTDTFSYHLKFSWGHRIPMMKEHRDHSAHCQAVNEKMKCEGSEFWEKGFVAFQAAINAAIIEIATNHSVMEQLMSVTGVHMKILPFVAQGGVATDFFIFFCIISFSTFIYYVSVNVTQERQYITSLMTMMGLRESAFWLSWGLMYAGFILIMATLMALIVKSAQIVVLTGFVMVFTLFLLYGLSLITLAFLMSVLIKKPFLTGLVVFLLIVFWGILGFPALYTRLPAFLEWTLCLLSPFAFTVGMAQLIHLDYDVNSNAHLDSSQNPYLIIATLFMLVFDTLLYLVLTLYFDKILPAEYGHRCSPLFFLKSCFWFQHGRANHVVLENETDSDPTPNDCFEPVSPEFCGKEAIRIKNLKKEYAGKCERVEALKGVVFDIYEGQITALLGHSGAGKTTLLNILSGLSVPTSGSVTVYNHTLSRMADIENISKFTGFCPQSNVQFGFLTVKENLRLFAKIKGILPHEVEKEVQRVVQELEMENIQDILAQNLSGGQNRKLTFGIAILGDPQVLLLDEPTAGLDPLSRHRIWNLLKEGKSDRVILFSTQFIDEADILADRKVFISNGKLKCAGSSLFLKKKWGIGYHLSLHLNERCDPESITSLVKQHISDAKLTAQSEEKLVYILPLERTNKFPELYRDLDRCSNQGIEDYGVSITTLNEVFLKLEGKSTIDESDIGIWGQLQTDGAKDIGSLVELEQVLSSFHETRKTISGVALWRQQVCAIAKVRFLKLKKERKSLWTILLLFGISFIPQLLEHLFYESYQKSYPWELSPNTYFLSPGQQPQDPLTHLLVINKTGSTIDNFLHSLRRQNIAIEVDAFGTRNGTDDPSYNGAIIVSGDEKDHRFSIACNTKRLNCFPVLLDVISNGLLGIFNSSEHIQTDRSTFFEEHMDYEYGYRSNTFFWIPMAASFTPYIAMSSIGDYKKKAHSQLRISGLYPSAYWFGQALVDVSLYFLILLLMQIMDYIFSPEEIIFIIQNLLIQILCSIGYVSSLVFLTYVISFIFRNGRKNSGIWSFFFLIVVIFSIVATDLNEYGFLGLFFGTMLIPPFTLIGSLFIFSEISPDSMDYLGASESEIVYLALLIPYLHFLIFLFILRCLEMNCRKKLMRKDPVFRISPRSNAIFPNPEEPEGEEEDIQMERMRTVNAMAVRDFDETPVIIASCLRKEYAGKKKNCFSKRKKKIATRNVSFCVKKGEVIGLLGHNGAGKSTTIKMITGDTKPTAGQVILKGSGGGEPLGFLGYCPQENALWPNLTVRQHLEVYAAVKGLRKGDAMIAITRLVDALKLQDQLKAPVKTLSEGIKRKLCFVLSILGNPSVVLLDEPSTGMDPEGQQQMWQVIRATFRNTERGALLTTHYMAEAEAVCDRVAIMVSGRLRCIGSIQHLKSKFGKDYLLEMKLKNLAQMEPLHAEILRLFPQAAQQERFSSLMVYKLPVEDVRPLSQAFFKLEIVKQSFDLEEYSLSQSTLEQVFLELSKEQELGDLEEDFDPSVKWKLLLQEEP
T6 sequence (Q9UNQ0 whole entry): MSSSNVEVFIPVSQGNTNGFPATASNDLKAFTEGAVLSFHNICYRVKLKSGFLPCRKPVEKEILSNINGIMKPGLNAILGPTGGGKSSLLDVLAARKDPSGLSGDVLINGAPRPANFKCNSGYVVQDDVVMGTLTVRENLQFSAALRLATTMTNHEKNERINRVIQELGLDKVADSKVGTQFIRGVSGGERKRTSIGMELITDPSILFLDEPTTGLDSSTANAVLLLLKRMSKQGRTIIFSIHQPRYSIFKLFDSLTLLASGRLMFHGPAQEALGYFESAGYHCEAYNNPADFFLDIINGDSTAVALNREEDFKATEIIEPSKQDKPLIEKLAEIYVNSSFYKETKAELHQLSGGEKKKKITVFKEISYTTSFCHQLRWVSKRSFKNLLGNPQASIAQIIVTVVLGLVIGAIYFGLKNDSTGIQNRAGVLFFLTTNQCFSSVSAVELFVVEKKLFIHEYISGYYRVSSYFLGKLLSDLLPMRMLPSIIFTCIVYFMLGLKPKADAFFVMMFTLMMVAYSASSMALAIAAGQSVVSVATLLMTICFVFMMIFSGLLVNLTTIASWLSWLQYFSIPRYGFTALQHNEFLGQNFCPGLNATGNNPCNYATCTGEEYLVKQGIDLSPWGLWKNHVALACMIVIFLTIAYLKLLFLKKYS

For `COc1ccc(NC(=S)N/N=C2\C(=O)Nc3c(Cl)cc(Cl)cc32)cc1` [NSC 73306], the “Effect of PSC 833 on the heightened sensitivity of KB-V1 cells” value ([1]; MTT assay with 2 μM PSC 833) was “completely reversed sensitivity; also recorded: completely abolished the heightened sensitivity”, the “Sensitivity of KB-V1 cells relative to parental KB-3-1 (potentiation by ABCB1)” value ([1]; MTT assay, 72 hrs) was “four- to five-fold; also recorded: approximately four-fold” and the “Block of MDR1-mediated transport of other molecules” value (MDR1) was “does not block”. For the same compound, the “Sensitivity of MDR1-On cells relative to MDR1-Off cells” value [2] was “two- to four-fold; also recorded: approximately two-fold”, the “Drug sensitivity for non-MDR1 substrates after pretreatment” value (MDR1 positive cells; non-MDR1 substrates such as cisplatin and methotrexate) was “unchanged” and the “Drug resistance to MDR1 substrates after pretreatment” value (MDR1 positive cells; pretreatment of MDR1 positive cells) was “almost complete elimination of drug resistance”. For the same compound, the Correlation (ABCD1) was −0.6029 and the “Correlation of antiproliferative activity with ABCB1 expression” value (ABCB1) was 0.511.
In the case of `Cn1c2ccccc2c2ccc3c(c21)C(=O)C=CC3=O` [NSC 92937], the Correlation (ABCB6) is reported as −0.4335.
With `CC(=O)O[C@@H]1C=C(C=O)[C@](O)(C=O)[C@@]2(C)CCCC(C)(C)[C@H]12` [NSC 277293] the Correlation (ABCB6) was −0.5055.
`COc1cc2c(c(OC)c1OC)-c1cccc(=O)cc1C(NC(C)=O)CC2` (centres unmarked) [NSC 352277] was tested, and the Correlation (ABCC9) was −0.3094.
`C[C@]12CC[C@H]3[C@@H](CCC4=CC(=O)NCC[C@@]43C)[C@@H]1CC[C@@H]2OC(=O)COc1ccc(N(CCCl)CCCl)cc1` [NSC 620480] was tested, and the Correlation (ABCA9) was −0.4846.
`COc1cc2[nH]c3c(c2cc1OC)CCN[C@@]31CC[C@@]2(CC3c4c(cc(OC)c(O)c42)CCN3C)C[C@@H]1OC` (some centres unmarked) [NSC 626578] was tested, and the Correlation (ABCC8) was −0.4335.
In the case of `CCN(CC)c1ccc(/C=C2/C[N+](C)(C)C/C(=C/c3ccc(N(CC)CC)cc3)C2=O)cc1.[I-]` [NSC 634791], the “Accumulation of the fluorescent compound in MDR1-positive cells vs parental KB-3-1” value ([3]; 1.74 μM, 10 min at 37° C.) is reported as “contain less of the fluorescent compound than the parental KB-3-1 cell line”, the “Effect of PSC 833 on the decreased accumulation” value ([3]; 2 μM PSC 833) is reported as “completely reversible” and the Correlation (ABCB1) is reported as −0.7900.
`O=C(O)COc1ccc(C(=O)/C(SS/C(C(=O)c2ccc(OCC(=O)O)c(Cl)c2Cl)=C2\C=C(c3ccc(Br)cc3)SS2)=C2/C=C(c3ccc(Br)cc3)SS2)c(Cl)c1Cl` [NSC 641281] was tested, and the “Response of ABCC2-overexpressing MDCKII cells vs sham-transfected control” value [4] was “extremely resistant; also recorded: no signs of toxicity even at maximal concentrations”.
`CCCCCCCCCCCCCCCC(=O)OCC1OC(OC)C2NP(=O)(N(CCCl)CCCl)OC1C2O` (centres unmarked) [NSC 642915] was tested, and the Correlation (ABCA9) was −0.4289.
For `Cn1c2ccc(F)cc2c2ccc3c(c21)C(=O)C=CC3=O` [NSC 668844], the Correlation (ABCG2) was −0.4615.
`CC(=O)c1sc2c(c1OC(=O)c1ccc(Cl)cc1Cl)c(=O)n(-c1ccccc1)c(=S)n2-c1ccccc1` [NSC 671136] was tested, and the “Resistance of ABCC11-transfected LLC-PK1 cells relative to sham-transfected cells” value [5] was “two- to three-fold” and the “Correlation (r) of ABCC11 expression with sensitivity” value (ABCC11) was −0.38.
`CCOC(=O)/C=C(\C(=O)OCC)n1cc(C)c(=O)n(Cc2cnnn2CCCCOC(C)=O)c1=O` [NSC 694002] was tested, and the Correlation (ABCG2) was −0.3627 and the “Pearson's Correlation Coeff” value (ABCB1) was 0.2442.
